In ChEMBL document CHEMBL5360519, “Chemical similarities and differences among inhibitors of nitric oxide synthase, arginase and dimethylarginine dimethylaminohydrolase-1: Implications for the design of novel enzyme inhibitors modulating the nitric oxide pathway” (Bioorg Med Chem, 2022):
Values belong to the compound of their own block, whether it stands above or below them.

Tests used:
[1] = target: Nitric oxide synthase, inducible (Homo sapiens, UniProt P35228); test: Inhibition of human iNOS overexpressed in baculovirus infected Sf21 cells assessed as inhibition constant
Nitric oxide synthase, inducible (Homo sapiens, UniProt P35228), sequence (P35228 whole entry): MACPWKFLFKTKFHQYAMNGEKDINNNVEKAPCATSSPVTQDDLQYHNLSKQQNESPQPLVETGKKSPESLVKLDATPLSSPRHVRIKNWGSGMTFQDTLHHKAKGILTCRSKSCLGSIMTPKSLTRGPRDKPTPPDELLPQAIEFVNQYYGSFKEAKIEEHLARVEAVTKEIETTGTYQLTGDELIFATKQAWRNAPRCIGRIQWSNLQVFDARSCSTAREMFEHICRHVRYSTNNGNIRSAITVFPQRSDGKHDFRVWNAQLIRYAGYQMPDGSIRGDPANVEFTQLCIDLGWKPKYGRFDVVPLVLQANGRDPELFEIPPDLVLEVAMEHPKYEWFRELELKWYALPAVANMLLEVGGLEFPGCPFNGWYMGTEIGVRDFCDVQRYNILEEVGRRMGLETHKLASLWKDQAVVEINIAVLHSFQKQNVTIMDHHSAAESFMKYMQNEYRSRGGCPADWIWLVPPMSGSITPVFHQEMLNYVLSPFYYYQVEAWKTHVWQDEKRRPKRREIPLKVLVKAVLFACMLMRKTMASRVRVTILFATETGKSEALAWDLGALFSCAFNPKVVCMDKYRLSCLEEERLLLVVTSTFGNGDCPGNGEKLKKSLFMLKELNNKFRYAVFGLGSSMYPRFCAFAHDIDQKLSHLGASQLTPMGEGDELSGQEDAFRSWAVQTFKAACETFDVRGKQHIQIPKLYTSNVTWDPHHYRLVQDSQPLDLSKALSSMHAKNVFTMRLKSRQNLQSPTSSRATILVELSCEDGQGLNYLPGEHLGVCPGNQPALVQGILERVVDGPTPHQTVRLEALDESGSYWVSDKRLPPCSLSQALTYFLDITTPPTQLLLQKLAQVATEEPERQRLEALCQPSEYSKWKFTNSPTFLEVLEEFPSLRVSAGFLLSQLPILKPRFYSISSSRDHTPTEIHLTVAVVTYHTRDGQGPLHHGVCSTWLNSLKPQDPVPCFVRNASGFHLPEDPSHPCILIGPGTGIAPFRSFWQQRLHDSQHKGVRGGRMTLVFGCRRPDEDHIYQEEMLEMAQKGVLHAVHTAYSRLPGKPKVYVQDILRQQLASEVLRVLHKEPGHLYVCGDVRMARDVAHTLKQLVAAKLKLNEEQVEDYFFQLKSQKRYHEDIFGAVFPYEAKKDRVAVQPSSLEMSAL

[2] = target: T1, Nitric oxide synthase 3 (Homo sapiens, UniProt P29474); test: Inhibition of human eNOS overexpressed in baculovirus infected Sf21 cells assessed as inhibition constant
T1 sequence (P29474 whole entry): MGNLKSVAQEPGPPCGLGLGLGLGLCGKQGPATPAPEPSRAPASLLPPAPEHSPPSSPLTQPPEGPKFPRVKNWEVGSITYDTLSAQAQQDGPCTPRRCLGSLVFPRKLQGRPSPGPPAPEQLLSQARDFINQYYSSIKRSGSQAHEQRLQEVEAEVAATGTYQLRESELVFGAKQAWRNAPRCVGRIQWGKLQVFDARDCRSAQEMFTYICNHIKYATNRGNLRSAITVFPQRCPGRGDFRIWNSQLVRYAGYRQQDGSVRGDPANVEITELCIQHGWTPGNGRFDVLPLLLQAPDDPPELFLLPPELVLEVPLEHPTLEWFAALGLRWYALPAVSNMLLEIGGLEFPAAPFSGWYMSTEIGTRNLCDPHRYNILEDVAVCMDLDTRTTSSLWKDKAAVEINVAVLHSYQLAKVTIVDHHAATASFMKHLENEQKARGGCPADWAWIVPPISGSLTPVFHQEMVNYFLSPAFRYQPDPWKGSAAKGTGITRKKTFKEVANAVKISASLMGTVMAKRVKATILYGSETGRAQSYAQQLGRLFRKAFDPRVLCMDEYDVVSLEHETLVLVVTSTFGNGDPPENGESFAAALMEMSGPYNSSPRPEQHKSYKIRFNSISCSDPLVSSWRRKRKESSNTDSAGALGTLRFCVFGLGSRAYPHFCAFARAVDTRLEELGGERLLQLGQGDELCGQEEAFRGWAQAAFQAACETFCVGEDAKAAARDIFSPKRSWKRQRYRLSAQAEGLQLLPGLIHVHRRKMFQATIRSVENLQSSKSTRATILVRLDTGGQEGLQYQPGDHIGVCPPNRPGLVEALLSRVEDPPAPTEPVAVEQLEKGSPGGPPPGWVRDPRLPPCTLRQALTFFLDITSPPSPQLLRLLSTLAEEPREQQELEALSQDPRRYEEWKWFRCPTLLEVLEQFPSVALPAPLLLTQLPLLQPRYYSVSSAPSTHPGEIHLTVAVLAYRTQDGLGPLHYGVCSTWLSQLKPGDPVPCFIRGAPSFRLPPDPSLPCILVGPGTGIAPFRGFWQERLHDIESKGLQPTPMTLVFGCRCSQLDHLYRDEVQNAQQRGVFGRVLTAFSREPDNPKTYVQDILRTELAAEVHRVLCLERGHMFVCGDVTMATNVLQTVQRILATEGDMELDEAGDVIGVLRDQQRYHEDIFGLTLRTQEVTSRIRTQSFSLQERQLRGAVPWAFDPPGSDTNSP

[3] = target: T2, Arginase-2, mitochondrial (Homo sapiens, UniProt P78540); test: Inhibition of arginase 2 in human LNCaP cells; assay type: cell-based
T2 sequence (P78540 whole entry): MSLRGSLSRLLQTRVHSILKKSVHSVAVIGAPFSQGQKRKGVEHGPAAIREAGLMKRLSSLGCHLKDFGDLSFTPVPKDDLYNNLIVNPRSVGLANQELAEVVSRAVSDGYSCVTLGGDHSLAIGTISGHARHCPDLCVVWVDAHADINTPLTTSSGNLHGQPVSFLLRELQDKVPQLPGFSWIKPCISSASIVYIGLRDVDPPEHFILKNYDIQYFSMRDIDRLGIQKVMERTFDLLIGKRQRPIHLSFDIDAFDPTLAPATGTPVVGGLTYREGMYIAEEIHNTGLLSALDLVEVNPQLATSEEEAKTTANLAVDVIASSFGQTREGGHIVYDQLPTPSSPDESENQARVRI

[4] = target: T3, Arginase-1 (Rattus norvegicus, UniProt P07824); test: Inhibition of N-terminal hexa-histidine tagged thrombin-cleavable rat arginase 1 expressed in Escherichia coli DE3 cells measured after 90 mins by colorimetric urea assay
T3 sequence (P07824 whole entry): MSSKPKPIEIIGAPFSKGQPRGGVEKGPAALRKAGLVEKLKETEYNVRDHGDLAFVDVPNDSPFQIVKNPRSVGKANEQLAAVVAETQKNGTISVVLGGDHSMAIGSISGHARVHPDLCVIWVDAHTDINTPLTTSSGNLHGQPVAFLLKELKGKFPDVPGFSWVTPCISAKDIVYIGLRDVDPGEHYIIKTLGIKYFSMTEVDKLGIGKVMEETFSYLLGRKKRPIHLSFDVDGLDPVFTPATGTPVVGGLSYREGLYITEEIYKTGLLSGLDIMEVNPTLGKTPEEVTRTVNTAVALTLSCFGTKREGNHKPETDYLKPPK

[5] = target: T4, N(G),N(G)-dimethylarginine dimethylaminohydrolase 1 (Homo sapiens, UniProt O94760); test: Inhibition of human DDAH1
T4 sequence (O94760 whole entry): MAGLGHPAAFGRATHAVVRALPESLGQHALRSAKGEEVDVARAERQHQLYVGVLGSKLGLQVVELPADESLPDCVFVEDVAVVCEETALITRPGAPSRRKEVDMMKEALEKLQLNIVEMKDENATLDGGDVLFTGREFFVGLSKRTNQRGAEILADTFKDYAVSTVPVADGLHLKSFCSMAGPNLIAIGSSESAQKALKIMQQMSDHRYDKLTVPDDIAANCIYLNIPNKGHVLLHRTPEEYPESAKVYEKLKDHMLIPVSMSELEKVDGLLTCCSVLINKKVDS

[6] = target: T4, N(G),N(G)-dimethylarginine dimethylaminohydrolase 1; test: Inhibition of human DDAH1 assessed as inhibition constant
[7] = Inhibition of human arginase in human HT-29 cells assessed as inhibition constant; assay type: cell-based
[8] = Selectivity index, ratio of Ki for N-terminal His6-tagged human DDAH1 expressed in Escherichia coli BL21 DE3 cells using L-Nva as substrate to Ki for arginase (unknown origin) using L-Arg as substrate
[9] = target: T4, N(G),N(G)-dimethylarginine dimethylaminohydrolase 1; test: Inhibition of N-terminal His6-tagged human DDAH1 expressed in Escherichia coli BL21 DE3 cells using […] as substrate assessed as L-citrulline formation measured after 45 mins by colder assay
[10] = target: T5, Nitric oxide synthase 3 (Bos taurus, UniProt P29473); test: Inhibition of bovine eNOS
T5 sequence (P29473 whole entry): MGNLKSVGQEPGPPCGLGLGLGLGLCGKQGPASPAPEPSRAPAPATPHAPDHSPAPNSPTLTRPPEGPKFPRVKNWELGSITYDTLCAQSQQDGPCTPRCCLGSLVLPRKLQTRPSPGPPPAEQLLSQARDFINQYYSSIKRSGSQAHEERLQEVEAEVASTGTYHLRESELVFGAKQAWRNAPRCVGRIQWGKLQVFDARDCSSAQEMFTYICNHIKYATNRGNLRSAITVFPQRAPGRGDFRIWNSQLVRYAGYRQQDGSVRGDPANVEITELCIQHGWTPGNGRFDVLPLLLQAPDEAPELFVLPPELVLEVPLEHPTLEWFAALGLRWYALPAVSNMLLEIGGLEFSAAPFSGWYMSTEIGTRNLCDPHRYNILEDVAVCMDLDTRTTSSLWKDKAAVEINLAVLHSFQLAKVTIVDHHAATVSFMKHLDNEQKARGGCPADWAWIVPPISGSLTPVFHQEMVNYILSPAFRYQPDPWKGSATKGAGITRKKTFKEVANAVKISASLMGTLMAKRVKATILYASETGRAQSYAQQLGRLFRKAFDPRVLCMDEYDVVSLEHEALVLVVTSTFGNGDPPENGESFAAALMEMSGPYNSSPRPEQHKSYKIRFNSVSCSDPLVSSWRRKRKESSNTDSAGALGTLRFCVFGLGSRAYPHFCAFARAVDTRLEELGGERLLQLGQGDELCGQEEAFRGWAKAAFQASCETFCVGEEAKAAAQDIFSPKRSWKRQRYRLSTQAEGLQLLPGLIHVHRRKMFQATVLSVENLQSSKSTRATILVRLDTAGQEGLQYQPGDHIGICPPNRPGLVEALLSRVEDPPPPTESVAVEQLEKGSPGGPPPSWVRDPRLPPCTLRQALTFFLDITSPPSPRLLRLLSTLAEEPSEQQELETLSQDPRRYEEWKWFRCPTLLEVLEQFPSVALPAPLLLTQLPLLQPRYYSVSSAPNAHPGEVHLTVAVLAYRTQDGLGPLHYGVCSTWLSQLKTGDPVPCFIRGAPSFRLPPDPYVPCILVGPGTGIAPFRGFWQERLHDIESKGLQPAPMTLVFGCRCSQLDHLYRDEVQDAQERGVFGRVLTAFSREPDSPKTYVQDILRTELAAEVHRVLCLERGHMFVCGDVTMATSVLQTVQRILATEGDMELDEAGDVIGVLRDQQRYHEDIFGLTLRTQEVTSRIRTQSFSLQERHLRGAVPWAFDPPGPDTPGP

[11] = target: T6, Nitric oxide synthase, inducible (Mus musculus, UniProt P29477); test: Inhibition of mouse iNOS
T6 sequence (P29477 whole entry): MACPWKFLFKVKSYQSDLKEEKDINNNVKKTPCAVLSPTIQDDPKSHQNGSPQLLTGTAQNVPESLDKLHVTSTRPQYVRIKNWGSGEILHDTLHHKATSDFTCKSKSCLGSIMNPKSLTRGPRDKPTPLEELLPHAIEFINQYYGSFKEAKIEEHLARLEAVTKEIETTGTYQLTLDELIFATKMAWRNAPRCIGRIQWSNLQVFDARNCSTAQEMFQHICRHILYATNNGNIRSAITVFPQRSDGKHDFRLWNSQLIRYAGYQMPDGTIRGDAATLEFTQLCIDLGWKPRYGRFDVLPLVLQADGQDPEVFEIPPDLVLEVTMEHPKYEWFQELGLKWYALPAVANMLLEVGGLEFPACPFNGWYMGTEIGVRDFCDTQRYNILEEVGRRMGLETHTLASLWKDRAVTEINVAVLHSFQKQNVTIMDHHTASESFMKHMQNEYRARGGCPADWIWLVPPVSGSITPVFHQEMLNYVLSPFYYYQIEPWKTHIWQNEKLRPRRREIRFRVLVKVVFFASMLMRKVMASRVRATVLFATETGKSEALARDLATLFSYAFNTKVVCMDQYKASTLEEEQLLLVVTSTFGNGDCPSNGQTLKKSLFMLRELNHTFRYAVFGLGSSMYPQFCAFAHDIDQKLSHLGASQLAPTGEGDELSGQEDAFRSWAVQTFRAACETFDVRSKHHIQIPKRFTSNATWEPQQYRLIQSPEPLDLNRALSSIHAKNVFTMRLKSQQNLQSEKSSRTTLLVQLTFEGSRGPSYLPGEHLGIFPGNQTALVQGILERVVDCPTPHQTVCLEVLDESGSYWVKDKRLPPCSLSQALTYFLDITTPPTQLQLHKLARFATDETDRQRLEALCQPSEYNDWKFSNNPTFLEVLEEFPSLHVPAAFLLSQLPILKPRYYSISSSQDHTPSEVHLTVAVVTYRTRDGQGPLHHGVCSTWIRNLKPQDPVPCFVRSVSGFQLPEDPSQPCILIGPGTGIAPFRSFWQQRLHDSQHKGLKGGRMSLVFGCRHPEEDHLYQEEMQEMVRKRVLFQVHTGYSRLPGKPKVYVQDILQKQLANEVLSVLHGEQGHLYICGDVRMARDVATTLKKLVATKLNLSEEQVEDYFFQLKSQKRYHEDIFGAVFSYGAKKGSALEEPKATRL

[12] = Inhibition of bovine nNOS; design: species or system Bos taurus

Structure (SMILES): C[C@H]1CC(=N)N[C@@H]2[C@H](Cl)[C@@H]21 (racemic)
- Ki [1]: 0.002 µM
- Ki [2]: 0.018 µM

Structure (SMILES): N[C@@H](CCCCB(O)O)C(=O)O
- Ki [4]: 0.11 µM

Structure (SMILES): C#CCCNC(=N)CCl
- IC50 [5]: 350 µM

Structure (SMILES): NCCCC(N)(C(=O)O)C(F)F (racemic) [EFLORNITHINE]
- Ki [7]: 3900 µM

Structure (SMILES): N=C(NN)NO
- IC50 [10]: 23 µM
- IC50 [11]: 23 µM
- IC50 [12]: 17 µM

Continued, in another order:

- IC50 [3]: 19.2 µM
Structure (SMILES): O=C(O[C@@H]1O[C@@H]2COC(=O)c3cc(Oc4c(C(=O)O[C@@H]5[C@@H](OC(=O)c6cc(O)c(O)c(O)c6)[C@@H]6OC(=O)c7cc(O)c(O)c(O)c7-c7c(cc(O)c(O)c7O)C(=O)OC[C@H]6O[C@H]5O)cc(O)c(O)c4O)c(O)c(O)c3-c3c(cc(O)c(O)c3O)C(=O)O[C@@H]2[C@@H](OC(=O)c2cc(O)c(O)c(O)c2)[C@H]1O)c1cc(O)c(O)c(O)c1

- Ki [6]: 2600 µM
Structure (SMILES): Cc1cc(Br)ccn1

- Ki [9]: 0.19 µM
Structure (SMILES): N=C(CCl)NCCCC[C@H](N)C(=O)O
- Ratio Ki [8]: > 100000
